These compounds were tested against T1, IGF-1R Ba/F3 (Homo sapiens, UniProt P08069) (assay: Ba/F3 Cell Viability Inhibition Assay (IGF-1R Ba/F3)). Conditions: Tel-TK transformed Ba/F3 cells, 48 hours, Britelite luminescence.
T1 construct: fused on or other part: TEL- (or BCR-) IGF-1R in Ba/F3: the kinase part holds the site
T1 sequence (P08069 999-1274 limits assumed): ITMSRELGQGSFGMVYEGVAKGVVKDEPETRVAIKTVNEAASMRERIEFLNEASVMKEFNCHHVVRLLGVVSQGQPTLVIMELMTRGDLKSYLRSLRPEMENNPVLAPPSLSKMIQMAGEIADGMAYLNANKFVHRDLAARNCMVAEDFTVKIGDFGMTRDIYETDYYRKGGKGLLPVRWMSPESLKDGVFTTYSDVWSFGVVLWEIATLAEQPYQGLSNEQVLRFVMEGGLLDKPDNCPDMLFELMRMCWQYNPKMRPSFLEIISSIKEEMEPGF
Assay type: cell-based, murine
Procedure, shortened: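 IL-3-independent murine Ba/F3 cells transformed with a TEL/BCR-fused IGF-1R kinase were seeded at 3750 cells/well and exposed to serially diluted compound for 48 h at 37 °C. Viability was read by Britelite luminescence. IC50 is the concentration giving 50% of DMSO-control viability, from a logistic fit.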
`COc1cc(Nc2ncc(Cl)c(Nc3cc(C)[nH]n3)n2)c(C)cc1C1CCN(C[C@H](O)C(F)(F)F)CC1` [Compound 213, (S)-3-(4-(4-(5-chloro-4-(5-methyl-1H-pyrazol-3-ylamino)pyrimidin-2-ylamino)-2-methoxy-5-methylphenyl)piperidin-1-yl)-1,1,1-trifluoropropan-2-ol] gave an IC50 of 12 nM.
With `Cc1cc(Nc2nc(Nc3cc(C)c(C4CCN(CCCS(=O)(=O)N5CCC5)CC4)cc3C)ncc2Cl)n[nH]1` [Compound 214, N^2-(4-(1-(3-(azetidin-1-ylsulfonyl)propyl)piperidin-4-yl)-2,5-dimethylphenyl)-5-chloro-N^4-(5-methyl-1H-pyrazol-3-yl)pyrimidine-2,4-diamine] the IC50 was 40 nM.
In the case of `Cc1cc(C2CCNCC2)c(C)cc1Nc1ncc(Cl)c(Nc2cc(C(F)(F)F)[nH]n2)n1` [Compound 215, 5-chloro-N2-(2,5-dimethyl-4-(piperidin-4-yl)phenyl)-N4-(5-(trifluoromethyl)-1H-pyrazol-3-yl)pyrimidine-2,4-diamine], the IC50 is reported as 47 nM.
For `Cc1cc(Nc2nc(Nc3cc(C(F)(F)F)c(C4CCN(C)CC4)cc3F)ncc2Cl)n[nH]1` [Compound 216, 5-chloro-N2-(2-fluoro-4-(1-methylpiperidin-4-yl)-5-(trifluoromethyl)phenyl)-N4-(5-methyl-1H-pyrazol-3-yl)pyrimidine-2,4-diamine], the IC50 was 47 nM.
In the case of `Cc1cc(C2CCN(CC(N)=O)CC2)c(C)cc1Nc1ncc(Cl)c(Nc2cc(C(F)(F)F)[nH]n2)n1` [Compound 217, 2-(4-(4-(5-chloro-4-(5-(trifluoromethyl)-1H-pyrazol-3-ylamino)pyrimidin-2-ylamino)-2,5-dimethylphenyl)piperidin-1-yl)acetamide], the IC50 is reported as 34 nM.
`Cc1cc(Nc2nc(Nc3cc(C(F)(F)F)c(C4CCN(C)CC4)cc3C)ncc2Cl)n[nH]1` [Compound 218, 5-chloro-N4-(5-methyl-1H-pyrazol-3-yl)-N2-(2-methyl-4-(1-methylpiperidin-4-yl)-5-(trifluoromethyl)phenyl)pyrimidine-2,4-diamine] was tested, and the IC50 was 26 nM.
With `COc1cc(Nc2ncc(Cl)c(Nc3cc(C)[nH]n3)n2)c(C)cc1C1CCN(C)CC1` [Compound 219, 5-chloro-N2-(5-methoxy-2-methyl-4-(1-methylpiperidin-4-yl)phenyl)-N4-(5-methyl-1H-pyrazol-3-yl)pyrimidine-2,4-diamine] the IC50 was 9 nM.
Work on `CNC(=O)CN1CCC(c2cc(C)c(Nc3ncc(Cl)c(Nc4cc(C(F)(F)F)[nH]n4)n3)cc2C)CC1` [Compound 220, 2-(4-(4-(5-chloro-4-(5-(trifluoromethyl)-1H-pyrazol-3-ylamino)pyrimidin-2-ylamino)-2,5-dimethylphenyl)piperidin-1-yl)-N-methylacetamide] yielded an IC50 of 37 nM.
In the case of `CCN1CCC(c2cc(C)c(Nc3ncc(C(F)(F)F)c(Nc4cc(C)[nH]n4)n3)cc2C)CC1` [Compound 221, N2-(4-(1-ethylpiperidin-4-yl)-2,5-dimethylphenyl)-N4-(5-methyl-1H-pyrazol-3-yl)-5-(trifluoromethyl)pyrimidine-2,4-diamine], the IC50 is reported as 34 nM.
`Cc1cc(Nc2nc(Nc3cc(C)c(C4CCN(CCO)CC4)cc3C)ncc2C(F)(F)F)n[nH]1` [Compound 222, 2-(4-(2,5-dimethyl-4-(4-(5-methyl-1H-pyrazol-3-ylamino)-5-(trifluoromethyl)pyrimidin-2-ylamino)phenyl)piperidin-1-yl)ethanol] showed an IC50 of 38 nM.
Compound `Cc1cc(C2CCN(C(=O)CN(C)C)CC2)c(C)cc1Nc1ncc(Cl)c(Nc2cc(C(F)(F)F)[nH]n2)n1` [Compound 223, 1-(4-(4-(5-chloro-4-(5-(trifluoromethyl)-1H-pyrazol-3-ylamino)pyrimidin-2-ylamino)-2,5-dimethylphenyl)piperidin-1-yl)-2-(dimethylamino)ethanone] has an IC50 of 36 nM.
For `Cc1cc(Nc2nc(Nc3cc(C)c(C4CCN(C(=O)CCCN5CCOCC5)CC4)cc3C)ncc2Cl)n[nH]1` [Compound 224, 1-(4-(4-(5-Chloro-4-(5-methyl-1H-pyrazol-3-ylamino)pyrimidin-2-ylamino)-2,5-dimethylphenyl)piperidin-1-yl)-4-morpholinobutan-1-one], the IC50 was 20 nM.
Compound `Cc1cc(Nc2nc(Nc3cc(C)c(C4CCN(C(=O)CCN5CCOCC5)CC4)cc3C)ncc2Cl)n[nH]1` [Compound 225, 1-(4-(4-(5-Chloro-4-(5-methyl-1H-pyrazol-3-ylamino)pyrimidin-2-ylamino)-2,5-dimethylphenyl)piperidin-1-yl)-3-morpholinopropan-1-one] has an IC50 of 17 nM.
Compound `Cc1cc(Nc2nc(Nc3cc(C)c(C4CCN(C(=O)CCN5CCCC5)CC4)cc3C)ncc2Cl)n[nH]1` [Compound 226, 1-(4-(4-(5-chloro-4-(5-methyl-1H-pyrazol-3-ylamino)pyrimidin-2-ylamino)-2,5-dimethylphenyl)piperidin-1-yl)-3-(pyrrolidin-1-yl)propan-1-one] has an IC50 of 61 nM.
`Cc1cc(Nc2nc(Nc3cc(C)c(C4CCN(C(=O)CCCN5CCCC5)CC4)cc3C)ncc2Cl)n[nH]1` [Compound 227, 1-(4-(4-(5-chloro-4-(5-methyl-1H-pyrazol-3-ylamino)pyrimidin-2-ylamino)-2,5-dimethylphenyl)piperidin-1-yl)-4-(pyrrolidin-1-yl)butan-1-one] gave an IC50 of 123 nM.
`COc1cc(Nc2ncc(Cl)c(Nc3cc(C)[nH]n3)n2)c(C)cc1C1CCN(C[C@@H](O)C(F)(F)F)CC1` [Compound 228, (R)-3-(4-(4-(5-chloro-4-(5-methyl-1H-pyrazol-3-ylamino)pyrimidin-2-ylamino)-2-methoxy-5-methylphenyl)piperidin-1-yl)-1,1,1-trifluoropropan-2-ol] was tested, and the IC50 was 23 nM.
`Cc1cc(Nc2nc(Nc3cc(C)c(C4CCCCN4C[C@@H](O)C(F)(F)F)cc3C)ncc2Cl)n[nH]1` (stereo partly drawn) [Compound 229, (2R)-3-(2-(4-(5-chloro-4-(5-methyl-1H-pyrazol-3-ylamino)pyrimidin-2-ylamino)-2,5-dimethylphenyl)piperidin-1-yl)-1,1,1-trifluoropropan-2-ol] was tested, and the IC50 was 211 nM.
For `Cc1cc(Nc2nc(Nc3cc(C)c([C@H]4COC(=O)N4)cc3C)ncc2Cl)n[nH]1` [Compound 230, (S)-4-(4-(5-chloro-4-(5-methyl-1H-pyrazol-3-ylamino)pyrimidin-2-ylamino)-2,5-dimethylphenyl)oxazolidin-2-one], the IC50 was 40 nM.
In the case of `Cc1cc(Nc2nc(Nc3cc(C)c([C@@H]4COC(=O)N4)cc3C)ncc2Cl)n[nH]1` [Compound 231, (R)-4-(4-(5-chloro-4-(5-methyl-1H-pyrazol-3-ylamino)pyrimidin-2-ylamino)-2,5-dimethylphenyl)oxazolidin-2-one], the IC50 is reported as 50 nM.
`CCN1CCC(c2cc(F)c(Nc3ncc(Cl)c(Nc4cc(C)[nH]n4)n3)cc2C)CC1` [Compound 232, 5-chloro-N^2-(4-(1-ethylpiperidin-4-yl)-2-fluoro-5-methylphenyl)-N^4-(5-methyl-1H-pyrazol-3-yl)pyrimidine-2,4-diamine] showed an IC50 of 20 nM.
`Cc1cc(Nc2nc(Nc3cc(C)c(C4CCN(S(=O)(=O)CCCN5CCCC5)CC4)cc3C)ncc2Cl)n[nH]1` [Compound 233, 5-chloro-N2-(2,5-dimethyl-4-(1-(3-(pyrrolidin-l-yl)propylsulfonyl)piperidin-4-yl)phenyl)-N4-(5-methyl-1H-pyrazol-3-yl)pyrimidine-2,4-diamine] gave an IC50 of 54 nM.
`Cc1cc(Nc2nc(Nc3cc(C)c(C4CCN(S(=O)(=O)CCCN5CC[C@@H](O)C5)CC4)cc3C)ncc2Cl)n[nH]1` [Compound 234, (R)-1-(3-(4-(4-(5-chloro-4-(5-methyl-1H-pyrazol-3-ylamino)pyrimidin-2-ylamino)-2,5-dimethylphenyl)piperidin-1-ylsulfonyl)propyl)pyrrolidin-3-ol] showed an IC50 of 73 nM.
`Cc1cc(Nc2nc(Nc3cc(C)c(C4CCN(CC5CC5(F)F)CC4)cc3F)ncc2Cl)n[nH]1` (centres unmarked) [Compound 235, 5-chloro-N-(4-(1-((2,2-difluorocyclopropyl)methyl)piperidin-4-yl)-2-fluoro-5-methylphenyl)-N^4-(5-methyl-1H-pyrazol-3-yl)pyrimidine-2,4-diamine] showed an IC50 of 63 nM.
With `Cc1cc(Nc2nc(Nc3cc(C)c(C4CCN(CCC(N)=O)CC4)cc3C)ncc2Cl)n[nH]1` [Compound 236, 3-(4-(4-(5-Chloro-4-(5-methyl-1H-pyrazol-3-ylamino)pyrimidin-2-ylamino)-2,5-dimethylphenyl)piperidin-1-yl)propanamide] the IC50 was 59 nM.
`Cc1cc(Nc2nc(Nc3cc(C)c(C4CNC4)cc3C)ncc2Cl)n[nH]1` [Compound 237, N2-(4-(azetidin-3-yl)-2,5-dimethylphenyl)-5-chloro-N4-(5-methyl-1H-pyrazol-3-yl)pyrimidine-2,4-diamine] showed an IC50 of 410 nM.
`Cc1cc(Nc2nc(Nc3cc(C)c(C4CCN(CCC(=O)N5CCCC5)CC4)cc3C)ncc2Cl)n[nH]1` [Compound 238, 3-(4-(4-(5-chloro-4-(5-methyl-1H-pyrazol-3-ylamino)pyrimidin-2-ylamino)-2,5-dimethylphenyl)piperidin-1-yl)-1-(pyrrolidin-1-yl)propan-1-one] showed an IC50 of 39 nM.
In the case of `Cc1cc(Nc2nc(Nc3cc(C)c(C4CCN(C(=O)CCN(C)C)CC4)cc3C)ncc2Cl)n[nH]1` [Compound 239, 1-(4-(4-(5-chloro-4-(5-methyl-1H-pyrazol-3-ylamino)pyrimidin-2-ylamino)-2,5-dimethylphenyl)piperidin-1-yl)-3-(dimethylamino)propan-1-one], the IC50 is reported as 73 nM.
`CCN1CCC(c2cc(F)c(Nc3ncc(Cl)c(Nc4cc(C)[nH]n4)n3)cc2C(F)(F)F)CC1` [Compound 240, 5-chloro-N2-(4-(1-ethylpiperidin-4-yl)-2-fluoro-5-(trifluoromethyl)phenyl)-N4-(5-methyl-1H-pyrazol-3-yl)pyrimidine-2,4-diamine] showed an IC50 of 102 nM.
For `CCN1CCC(c2cc(C)c(Nc3ncc(Cl)c(Nc4cc(C)[nH]n4)n3)cc2C(F)(F)F)CC1` [Compound 241, 5-chloro-N2-(4-(1-ethylpiperidin-4-yl)-2-methyl-5-(trifluoromethyl)phenyl)-N4-(5-methyl-1H-pyrazol-3-yl)pyrimidine-2,4-diamine], the IC50 was 68 nM.

Reference: patent US8859574B2 (IRM LLC, priority 2008, dated 2014)
